Test results: paper doi:10.1101/2023.11.24.568596v1 (biorxiv, 2023)

Experiments:
Details in all cases: binder
ABL1 = ABL1 (Homo sapiens, UniProt P00519)
GAK = biological target: T1, GAK (Homo sapiens, UniProt O14976)
T1 sequence (O14976 1-1311): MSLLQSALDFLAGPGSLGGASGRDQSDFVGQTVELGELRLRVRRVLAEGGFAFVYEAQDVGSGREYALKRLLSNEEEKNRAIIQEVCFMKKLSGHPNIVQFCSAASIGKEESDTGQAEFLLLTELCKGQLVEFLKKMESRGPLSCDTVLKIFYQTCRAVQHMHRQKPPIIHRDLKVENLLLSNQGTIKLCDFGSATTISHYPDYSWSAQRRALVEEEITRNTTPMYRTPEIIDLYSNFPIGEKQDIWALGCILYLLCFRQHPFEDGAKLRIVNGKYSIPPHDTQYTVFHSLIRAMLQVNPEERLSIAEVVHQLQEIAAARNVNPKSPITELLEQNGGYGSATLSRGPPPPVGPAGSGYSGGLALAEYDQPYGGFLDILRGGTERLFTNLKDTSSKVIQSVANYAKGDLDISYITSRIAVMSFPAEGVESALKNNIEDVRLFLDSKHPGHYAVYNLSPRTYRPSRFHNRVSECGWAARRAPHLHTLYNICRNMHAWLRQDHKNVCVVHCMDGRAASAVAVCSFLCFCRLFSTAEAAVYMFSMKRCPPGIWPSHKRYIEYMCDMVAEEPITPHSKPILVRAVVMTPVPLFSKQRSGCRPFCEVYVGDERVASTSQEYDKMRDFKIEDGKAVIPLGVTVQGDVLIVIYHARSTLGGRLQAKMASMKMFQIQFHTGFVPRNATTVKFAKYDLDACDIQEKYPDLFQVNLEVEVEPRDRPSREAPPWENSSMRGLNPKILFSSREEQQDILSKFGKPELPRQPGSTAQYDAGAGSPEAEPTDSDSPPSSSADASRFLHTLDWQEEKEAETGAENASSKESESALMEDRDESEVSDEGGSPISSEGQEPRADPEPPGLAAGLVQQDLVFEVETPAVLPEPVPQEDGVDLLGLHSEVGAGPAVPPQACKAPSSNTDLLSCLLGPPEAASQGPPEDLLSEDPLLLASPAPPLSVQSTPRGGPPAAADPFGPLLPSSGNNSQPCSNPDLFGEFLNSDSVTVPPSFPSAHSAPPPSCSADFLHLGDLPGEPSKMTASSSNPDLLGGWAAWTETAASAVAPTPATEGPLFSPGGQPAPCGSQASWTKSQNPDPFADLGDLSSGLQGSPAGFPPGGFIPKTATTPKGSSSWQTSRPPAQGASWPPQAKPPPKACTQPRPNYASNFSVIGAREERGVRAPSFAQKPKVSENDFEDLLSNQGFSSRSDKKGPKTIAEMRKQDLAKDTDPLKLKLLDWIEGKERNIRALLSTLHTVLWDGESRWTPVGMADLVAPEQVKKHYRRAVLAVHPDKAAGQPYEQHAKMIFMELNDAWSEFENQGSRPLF

GPRK5 = GPRK5 (Homo sapiens, UniProt P34947)
GPRK5, sequence (P34947 whole entry): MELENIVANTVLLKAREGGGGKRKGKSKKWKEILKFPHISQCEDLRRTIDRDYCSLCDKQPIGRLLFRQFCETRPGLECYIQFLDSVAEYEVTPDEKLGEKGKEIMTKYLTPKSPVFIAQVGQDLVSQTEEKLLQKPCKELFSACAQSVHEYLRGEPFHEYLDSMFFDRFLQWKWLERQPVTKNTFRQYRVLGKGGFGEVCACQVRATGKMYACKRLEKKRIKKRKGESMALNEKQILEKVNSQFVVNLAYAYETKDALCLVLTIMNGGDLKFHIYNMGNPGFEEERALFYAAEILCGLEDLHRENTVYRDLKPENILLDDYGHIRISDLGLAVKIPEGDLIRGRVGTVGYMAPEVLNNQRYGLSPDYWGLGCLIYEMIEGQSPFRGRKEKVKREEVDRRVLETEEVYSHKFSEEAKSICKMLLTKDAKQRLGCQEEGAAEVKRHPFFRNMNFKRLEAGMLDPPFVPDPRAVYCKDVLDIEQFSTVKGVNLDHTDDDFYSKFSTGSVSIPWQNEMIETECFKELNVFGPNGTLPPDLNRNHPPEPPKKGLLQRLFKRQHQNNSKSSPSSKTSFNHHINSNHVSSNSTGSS

JNK3 = JNK3 (Homo sapiens, UniProt P53779)
JNK3, sequence (P53779 whole entry): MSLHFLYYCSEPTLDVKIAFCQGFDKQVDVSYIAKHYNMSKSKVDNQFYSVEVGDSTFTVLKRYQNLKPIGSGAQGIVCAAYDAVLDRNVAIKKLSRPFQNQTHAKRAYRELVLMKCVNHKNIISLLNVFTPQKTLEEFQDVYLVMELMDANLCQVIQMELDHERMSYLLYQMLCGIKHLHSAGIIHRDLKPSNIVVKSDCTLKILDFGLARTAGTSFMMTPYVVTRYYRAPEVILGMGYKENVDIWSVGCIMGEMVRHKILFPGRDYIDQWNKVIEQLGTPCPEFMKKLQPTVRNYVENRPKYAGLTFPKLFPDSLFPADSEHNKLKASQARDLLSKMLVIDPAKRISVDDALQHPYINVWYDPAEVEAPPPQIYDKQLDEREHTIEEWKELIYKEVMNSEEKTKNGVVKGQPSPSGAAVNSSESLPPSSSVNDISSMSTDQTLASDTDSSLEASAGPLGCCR

CaMK2b = CaMK2b (Homo sapiens, UniProt Q13554)
CaMK2b, sequence (Q13554 whole entry): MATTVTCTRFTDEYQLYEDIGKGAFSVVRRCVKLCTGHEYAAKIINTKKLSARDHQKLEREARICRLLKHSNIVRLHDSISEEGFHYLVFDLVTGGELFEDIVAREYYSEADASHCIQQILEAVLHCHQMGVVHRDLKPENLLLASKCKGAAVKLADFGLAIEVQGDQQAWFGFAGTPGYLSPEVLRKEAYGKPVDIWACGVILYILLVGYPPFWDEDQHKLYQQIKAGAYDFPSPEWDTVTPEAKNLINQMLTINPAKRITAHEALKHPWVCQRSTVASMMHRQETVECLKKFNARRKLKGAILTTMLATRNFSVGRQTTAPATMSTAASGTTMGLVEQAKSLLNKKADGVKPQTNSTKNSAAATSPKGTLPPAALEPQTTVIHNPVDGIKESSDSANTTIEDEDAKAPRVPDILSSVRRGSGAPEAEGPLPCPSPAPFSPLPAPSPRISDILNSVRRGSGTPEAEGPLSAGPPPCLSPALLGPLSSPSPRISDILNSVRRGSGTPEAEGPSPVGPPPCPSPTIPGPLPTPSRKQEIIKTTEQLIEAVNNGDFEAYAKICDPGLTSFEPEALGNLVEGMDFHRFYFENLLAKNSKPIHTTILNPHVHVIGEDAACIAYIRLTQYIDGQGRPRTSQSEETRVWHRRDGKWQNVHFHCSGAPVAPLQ

CASK = biological target: T2, CASK (Homo sapiens, UniProt O14936)
T2 sequence (O14936 1-926): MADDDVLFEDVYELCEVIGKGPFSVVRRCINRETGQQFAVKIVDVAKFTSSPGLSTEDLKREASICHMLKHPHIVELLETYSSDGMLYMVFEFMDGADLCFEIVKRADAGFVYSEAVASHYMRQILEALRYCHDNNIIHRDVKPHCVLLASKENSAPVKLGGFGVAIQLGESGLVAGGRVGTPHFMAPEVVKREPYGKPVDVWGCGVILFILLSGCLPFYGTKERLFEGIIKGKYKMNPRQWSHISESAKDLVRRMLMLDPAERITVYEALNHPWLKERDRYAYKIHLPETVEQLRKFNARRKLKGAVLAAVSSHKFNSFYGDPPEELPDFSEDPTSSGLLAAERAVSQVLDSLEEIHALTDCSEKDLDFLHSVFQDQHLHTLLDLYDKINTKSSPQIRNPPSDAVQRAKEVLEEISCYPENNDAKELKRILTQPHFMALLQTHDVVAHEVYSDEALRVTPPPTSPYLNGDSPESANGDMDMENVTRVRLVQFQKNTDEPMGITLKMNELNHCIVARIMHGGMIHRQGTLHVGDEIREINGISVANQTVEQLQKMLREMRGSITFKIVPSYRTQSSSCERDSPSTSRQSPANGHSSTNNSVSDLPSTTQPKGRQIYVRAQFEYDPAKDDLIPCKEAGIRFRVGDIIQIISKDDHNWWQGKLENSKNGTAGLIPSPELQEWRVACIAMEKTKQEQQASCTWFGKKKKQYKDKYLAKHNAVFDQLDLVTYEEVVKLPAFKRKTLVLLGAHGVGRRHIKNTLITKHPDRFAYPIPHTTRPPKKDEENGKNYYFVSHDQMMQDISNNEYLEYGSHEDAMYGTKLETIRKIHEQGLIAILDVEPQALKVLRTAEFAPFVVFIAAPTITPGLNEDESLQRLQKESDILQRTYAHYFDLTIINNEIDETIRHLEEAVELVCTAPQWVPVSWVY

CLK1 = CLK1 (Homo sapiens, UniProt P49759)
CLK1, sequence (P49759 whole entry): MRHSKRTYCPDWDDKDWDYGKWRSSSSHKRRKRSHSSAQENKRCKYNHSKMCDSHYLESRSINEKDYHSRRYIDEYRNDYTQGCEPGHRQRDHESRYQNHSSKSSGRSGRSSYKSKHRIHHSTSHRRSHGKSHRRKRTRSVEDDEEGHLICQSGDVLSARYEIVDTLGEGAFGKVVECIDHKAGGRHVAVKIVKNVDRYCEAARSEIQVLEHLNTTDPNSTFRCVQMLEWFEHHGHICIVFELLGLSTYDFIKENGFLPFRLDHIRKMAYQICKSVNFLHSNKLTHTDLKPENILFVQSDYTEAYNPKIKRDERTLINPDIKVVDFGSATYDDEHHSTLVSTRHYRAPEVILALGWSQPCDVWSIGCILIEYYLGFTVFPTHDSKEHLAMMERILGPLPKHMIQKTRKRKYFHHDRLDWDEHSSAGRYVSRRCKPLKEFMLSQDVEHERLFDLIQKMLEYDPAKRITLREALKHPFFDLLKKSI

ABL1, sequence (P00519 whole entry): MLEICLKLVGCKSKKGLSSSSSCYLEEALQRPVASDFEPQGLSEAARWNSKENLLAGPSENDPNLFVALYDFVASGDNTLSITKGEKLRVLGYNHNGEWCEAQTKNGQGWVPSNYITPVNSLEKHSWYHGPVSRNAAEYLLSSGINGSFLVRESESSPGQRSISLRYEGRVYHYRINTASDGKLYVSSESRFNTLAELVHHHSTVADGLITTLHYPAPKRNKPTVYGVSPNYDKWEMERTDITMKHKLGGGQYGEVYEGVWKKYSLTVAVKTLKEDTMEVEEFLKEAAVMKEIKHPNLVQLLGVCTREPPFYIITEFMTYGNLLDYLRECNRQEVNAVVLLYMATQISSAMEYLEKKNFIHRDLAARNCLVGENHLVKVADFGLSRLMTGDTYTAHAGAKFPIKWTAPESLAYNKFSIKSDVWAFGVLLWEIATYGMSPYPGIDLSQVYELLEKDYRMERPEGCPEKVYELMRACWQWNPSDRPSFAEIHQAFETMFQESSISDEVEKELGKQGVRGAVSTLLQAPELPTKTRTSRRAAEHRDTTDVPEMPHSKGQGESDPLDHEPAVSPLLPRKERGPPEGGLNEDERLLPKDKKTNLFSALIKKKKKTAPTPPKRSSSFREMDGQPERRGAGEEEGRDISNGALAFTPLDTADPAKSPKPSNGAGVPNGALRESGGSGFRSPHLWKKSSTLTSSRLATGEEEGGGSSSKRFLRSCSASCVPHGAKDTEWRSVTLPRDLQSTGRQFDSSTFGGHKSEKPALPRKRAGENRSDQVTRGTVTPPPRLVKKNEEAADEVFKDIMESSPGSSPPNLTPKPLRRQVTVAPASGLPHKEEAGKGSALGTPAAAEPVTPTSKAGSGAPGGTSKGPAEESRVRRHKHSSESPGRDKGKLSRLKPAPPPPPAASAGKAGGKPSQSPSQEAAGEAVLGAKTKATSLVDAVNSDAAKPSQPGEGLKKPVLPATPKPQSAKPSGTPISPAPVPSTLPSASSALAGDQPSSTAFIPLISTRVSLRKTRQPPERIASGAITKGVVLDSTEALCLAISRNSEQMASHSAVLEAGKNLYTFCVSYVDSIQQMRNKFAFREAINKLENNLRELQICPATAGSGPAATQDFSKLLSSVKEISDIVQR

## Cc1cccc(-c2ccc(-c3cc4cnc(NCCCc5ccc(N)cc5)nc4n(CCCCN)c3=O)c(Cl)c2)n1 [compound 25, 8-(4-Aminobutyl)-2-((3-(4-aminophenyl)propyl)amino)-6-(2-chloro-4-(6-methylpyridin-2-yl)phenyl)pyrido[2,3-d]pyrimidin-7(8H)-one]
ABL1
  ΔTm 25: 3.9 °C
GAK
  ΔTm 25: 6.9 °C
GPRK5
  ΔTm 25: 0.6 °C
JNK3
  ΔTm 25: 3.2 °C
CaMK2b
  ΔTm 25: -0.1 °C
CASK
  ΔTm 25: -0.4 °C
CLK1
  ΔTm 25: 1.4 °C

## Cc1cccc(-c2ccc(-c3cc4cnc(NC(CO)CO)nc4n(CCCCN)c3=O)c(Cl)c2)n1 [compound 24, 8-(4-Aminobutyl)-6-(2-chloro-4-(6-methylpyridin-2-yl)phenyl)-2-((1,3-dihydroxypropan-2-yl)amino)pyrido[2,3-d]pyrimidin-7(8H)-one]
ABL1
  ΔTm MR24 (24): 1.4 °C
GAK
  ΔTm MR24 (24): 3.9 °C
GPRK5
  ΔTm MR24 (24): -1.0 °C
JNK3
  ΔTm MR24 (24): 3.7 °C
CaMK2b
  ΔTm MR24 (24): -0.8 °C
CASK
  ΔTm MR24 (24): -0.4 °C
CLK1
  ΔTm MR24 (24): -0.4 °C

## CNc1ncc2cc(-c3ccc(-c4cccc(C)n4)cc3Cl)c(=O)n(C[C@H]3CC[C@H](N)CC3)c2n1 [compound 23, 23]
ABL1
  ΔTm 23: 7.9 °C
GAK
  ΔTm 23: 9.3 °C
GPRK5
  ΔTm 23: 0.3 °C
JNK3
  ΔTm 23: 1.3 °C
CaMK2b
  ΔTm 23: 0.2 °C
CASK
  ΔTm 23: -0.4 °C
CLK1
  ΔTm 23: 0.8 °C

## Cc1cccc(-c2ccc(-c3cc4cnc(NCCCN5CCOCC5)nc4n(CCCCN)c3=O)c(Cl)c2)n1 [compound 26, MR26]
ABL1
  ΔTm MR26 (26): 2.9 °C
GAK
  ΔTm MR26 (26): 3.6 °C
GPRK5
  ΔTm MR26 (26): -0.5 °C
JNK3
  ΔTm MR26 (26): 1.1 °C
CaMK2b
  ΔTm MR26 (26): -0.3 °C
CASK
  ΔTm MR26 (26): -0.3 °C
CLK1
  ΔTm MR26 (26): -0.1 °C

## CNc1ncc2cc(-c3ccc(-c4cccc(C)n4)cc3Cl)c(=O)n(CCC3CCNCC3)c2n1 [compound 22, 6-(2-Chloro-4-(6-methylpyridin-2-yl)phenyl)-2-(methylamino)-8-(2-(piperidin-4-yl)ethyl)pyrido[2,3-d]pyrimidin-7(8H)-one]
ABL1
  ΔTm 22: 4.9 °C
GAK
  ΔTm 22: 9.7 °C
GPRK5
  ΔTm 22: -1.4 °C
JNK3
  ΔTm 22: 3.3 °C
CaMK2b
  ΔTm 22: -0.9 °C
CASK
  ΔTm 22: 0.3 °C
CLK1
  ΔTm 22: -1.6 °C

## CNc1ncc2cc(-c3ccc(-c4cccc(C)n4)cc3Cl)c(=O)n(CCCCN)c2n1 [compound 20, MRLW5]
ABL1
  ΔTm MRLW5 (20): 4.9 °C
GAK
  ΔTm MRLW5 (20): 7.7 °C
GPRK5
  ΔTm MRLW5 (20): 0.5 °C
JNK3
  ΔTm MRLW5 (20): 1.3 °C
CaMK2b
  ΔTm MRLW5 (20): -1.3 °C
CASK
  ΔTm MRLW5 (20): -0.5 °C
CLK1
  ΔTm MRLW5 (20): 0.3 °C
